Measurements reported in patent publication US20240336602A1 (Katholieke Universiteit Leuven, priority 2020, published 2024).

What follows are compounds tested against T1, mouse TRPM3a2 (mTRPM3) ion channel (Mus musculus, UniProt J9SQF3) (assay: TRPM3 ion channel driven Ca2+ uptake, Fluo-4 AM assay (PS-stimulated, overexpressing flip-in HEK293 cells)). Conditions: PS (50 μM) stimulated Ca2+ influx, HEK293, cpds 200-299.
T1 construct: expressed in transfected cells; host or cells: flip-in HEK293
Format: cell-based
Procedure, shortened: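 Flip-in HEK293 cells overexpressing mTRPM3α2, loaded with Fluo-4 AM, were added to wells with compound plus 50 μM pregnenolone sulfate in Ca2+-containing Krebs buffer and read immediately (ex 485/em 535 nm). Percent inhibition was scaled between PS-plus-vehicle and positive-control-inhibitor signals.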

T1 sequence (J9SQF3 1-1709 isoform J9SQF3-12): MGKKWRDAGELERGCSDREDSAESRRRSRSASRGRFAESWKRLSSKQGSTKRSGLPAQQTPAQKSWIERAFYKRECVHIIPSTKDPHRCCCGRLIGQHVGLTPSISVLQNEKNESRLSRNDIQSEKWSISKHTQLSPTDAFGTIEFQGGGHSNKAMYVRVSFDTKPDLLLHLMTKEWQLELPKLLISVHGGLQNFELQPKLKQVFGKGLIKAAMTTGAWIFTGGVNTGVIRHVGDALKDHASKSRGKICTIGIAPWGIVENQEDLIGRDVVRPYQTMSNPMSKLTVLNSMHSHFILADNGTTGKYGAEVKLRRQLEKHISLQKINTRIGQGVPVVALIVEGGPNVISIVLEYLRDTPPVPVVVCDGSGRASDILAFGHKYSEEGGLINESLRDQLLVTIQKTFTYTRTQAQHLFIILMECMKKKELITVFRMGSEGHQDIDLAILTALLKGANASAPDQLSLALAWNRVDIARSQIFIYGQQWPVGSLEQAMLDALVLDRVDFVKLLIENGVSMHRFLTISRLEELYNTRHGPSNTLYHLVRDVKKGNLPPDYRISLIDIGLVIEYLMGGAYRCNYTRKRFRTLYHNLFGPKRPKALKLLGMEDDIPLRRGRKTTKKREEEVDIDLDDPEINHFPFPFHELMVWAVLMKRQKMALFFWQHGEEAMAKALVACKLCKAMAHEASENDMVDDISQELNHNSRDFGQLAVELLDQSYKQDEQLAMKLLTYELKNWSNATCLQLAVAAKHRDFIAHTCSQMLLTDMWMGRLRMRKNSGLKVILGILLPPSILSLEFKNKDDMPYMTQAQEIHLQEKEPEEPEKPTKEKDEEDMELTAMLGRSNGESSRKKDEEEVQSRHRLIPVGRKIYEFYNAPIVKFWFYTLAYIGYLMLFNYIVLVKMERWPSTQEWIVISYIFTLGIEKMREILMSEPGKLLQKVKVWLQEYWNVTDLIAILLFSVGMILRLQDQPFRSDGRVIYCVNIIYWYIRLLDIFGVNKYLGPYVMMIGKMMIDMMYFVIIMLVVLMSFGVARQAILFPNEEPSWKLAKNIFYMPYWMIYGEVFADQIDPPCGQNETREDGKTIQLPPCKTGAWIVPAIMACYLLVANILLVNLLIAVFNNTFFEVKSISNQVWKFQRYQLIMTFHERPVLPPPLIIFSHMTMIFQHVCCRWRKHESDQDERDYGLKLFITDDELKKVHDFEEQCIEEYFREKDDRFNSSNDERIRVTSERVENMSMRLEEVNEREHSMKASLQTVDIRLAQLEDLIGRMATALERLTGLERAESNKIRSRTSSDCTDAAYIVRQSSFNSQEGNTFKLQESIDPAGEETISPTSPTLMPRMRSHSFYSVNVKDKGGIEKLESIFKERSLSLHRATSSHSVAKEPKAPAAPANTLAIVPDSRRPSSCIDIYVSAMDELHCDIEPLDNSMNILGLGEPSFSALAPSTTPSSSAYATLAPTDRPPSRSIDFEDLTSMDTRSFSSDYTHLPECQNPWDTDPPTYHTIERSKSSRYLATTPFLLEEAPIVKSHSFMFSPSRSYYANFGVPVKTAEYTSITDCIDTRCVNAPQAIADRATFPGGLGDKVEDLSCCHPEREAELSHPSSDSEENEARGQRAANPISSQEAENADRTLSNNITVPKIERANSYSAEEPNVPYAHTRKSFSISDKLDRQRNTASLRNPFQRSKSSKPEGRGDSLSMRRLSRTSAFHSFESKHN

IC50 [µM]	Compound
1 to 20	Cc1ncc(COc2ccc3oc(C)c(C(=O)N[C@@H](CO)C(=O)N4CCC(F)(F)C4)c3c2)s1 [cpd 277, (S)-N-(1-(3,3-difluoropyrrolidin-1-yl)-3-hydroxy-1-oxopropan-2-yl)-2-methyl-5-((2-methylthiazol-5-yl)methoxy)benzofuran-3-carboxamide]

Same assay, conditions: PS (50 μM) stimulated Ca2+ influx, HEK293, cpds 300-399

Compound	IC50 [µM]
Cc1ncc(COc2ccc3oc(C)c(C(=O)N[C@@H](CO)C(=O)N4CCCC4)c3c2)s1 [cpd 307, (S)-N-(3-hydroxy-1-oxo-1-(pyrrolidin-1-yl)propan-2-yl)-2-methyl-5-((2-methylthiazol-5-yl)methoxy)benzofuran-3-carboxamide]	1 to 20
Cc1oc2c(F)cc(OCc3cccnc3O)cc2c1C(=O)NC1(CO)CCOCC1 [cpd 368, 7-fluoro-N-(4-(hydroxymethyl)tetrahydro-2H-pyran-4-yl)-5-((2-hydroxypyridin-3-yl)methoxy)-2-methylbenzofuran-3-carboxamide]	1 to 20
COc1ncccc1COc1cc(F)c2oc(C)c(C(=O)NC3(CO)CCOCC3)c2c1 [cpd 369, 7-fluoro-N-(4-(hydroxymethyl)tetrahydro-2H-pyran-4-yl)-5-((2-methoxypyridin-3-yl)methoxy)-2-methylbenzofuran-3-carboxamide]	1 to 20
Cc1oc2ccc(OCc3ccnn3CC(F)F)cc2c1C(=O)N[C@H](C(N)=O)[C@@H](C)O [cpd 381, N-((2S,3R)-1-amino-3-hydroxy-1-oxobutan-2-yl)-5-((1-(2,2-difluoroethyl)-1H-pyrazol-5-yl)methoxy)-2-methylbenzofuran-3-carboxamide]	≤ 1

More lines, now with the values ahead:

IC50 [µM]	Compound
1 to 20	Cc1ncsc1COc1ccc2oc(C(F)F)c(C(=O)NC3(CO)CC3)c2c1 [cpd 308, 2-(difluoromethyl)-N-(1-(hydroxymethyl)cyclopropyl)-5-((4-methylthiazol-5-yl)methoxy)benzofuran-3-carboxamide]
1 to 20	Cc1ncsc1COc1ccc2oc(C(F)F)c(C(=O)NC3(CO)COC3)c2c1 [cpd 309, 2-(difluoromethyl)-N-(3-(hydroxymethyl)oxetan-3-yl)-5-((4-methylthiazol-5-yl)methoxy)benzofuran-3-carboxamide]
1 to 20	COc1ncccc1COc1ccc2oc(C(F)F)c(C(=O)NC3(CO)CCOCC3)c2c1 [cpd 312, 2-(difluoromethyl)-N-(4-(hydroxymethyl)tetrahydro-2H-pyran-4-yl)-5-((2-methoxypyridin-3-yl)methoxy)benzofuran-3-carboxamide]
1 to 20	Cc1ncsc1COc1ccc2oc(C)c(C(=O)NC3(CO)CC3)c2c1F [cpd 327, 4-fluoro-N-(1-(hydroxymethyl)cyclopropyl)-2-methyl-5-((4-methylthiazol-5-yl)methoxy)benzofuran-3-carboxamide]
1 to 20	Cc1oc2ccc(OCc3nccn3CC(F)F)cc2c1C(=O)NC1(CO)CCOCC1 [cpd 331, 5-((1-(2,2-difluoroethyl)-1H-imidazol-2-yl)methoxy)-N-(4-(hydroxymethyl)tetrahydro-2H-pyran-4-yl)-2-methylbenzofuran-3-carboxamide]
1 to 20	Cc1oc2ccc(OCc3ncccc3C(F)F)cc2c1C(=O)NC1(CO)CCOCC1 [cpd 351, 5-((3-(difluoromethyl)pyridin-2-yl)methoxy)-N-(4-(hydroxymethyl)tetmhydro-2H-pyran-4-yl)-2-methylbenzofuran-3-carboxamide]
1 to 20	Cc1ncsc1COc1cc(F)c2oc(C)c(C(=O)NC3(CO)CC3)c2c1 [cpd 366, 7-fluoro-N-(1-(hydroxymethyl)cyclopropyl)-2-methyl-5-((4-methylthiazol-5-yl)methoxy)benzofuran-3-carboxamide]

Same assay, conditions: PS (50 μM) stimulated, cpd 001-199

Compound	IC50 [µM]
Cc1ncsc1COc1ccc2oc(C)c(C(=O)NC3CCN(C(=O)OC(C)(C)C)CC3(F)F)c2c1 (stereo not drawn) [cpd 090, tert-butyl 3,3-difluoro-4-(2-methyl-5-((4-methylthiazol-5-yl)methoxy)benzofuran-3-carbox-amido)piperidine-1-carboxylate]	1 to 20
COc1cccc(COc2ccc3oc(C)c(C(=O)NC4CCN(C(=O)OC(C)(C)C)CC4(F)F)c3c2)n1 (stereo not drawn) [cpd 091, tert-butyl 3,3-difluoro-4-(5-((6-methoxypyridin-2-yl)methoxy)-2-methylbenzofuran-3-carbox-amido)piperidine-1-carboxylate]	1 to 20
Cc1oc2ccc(OCc3cccnc3Cl)cc2c1C(=O)NC1CCN(C(=O)OC(C)(C)C)CC1(F)F (stereo not drawn) [cpd 092, tert-butyl 4-(5-((2-chloropyridin-3-yl)methoxy)-2-methylbenzofuran-3-carboxamido)-3,3-difluoro-piperidine-1-carboxylate]	1 to 20
Cc1oc2ccc(OCc3cnccc3Cl)cc2c1C(=O)NC1CCN(C(=O)OC(C)(C)C)CC1(F)F (stereo not drawn) [cpd 093, tert-butyl 4-(5-((4-chloropyridin-3-yl)methoxy)-2-methylbenzofuran-3-carboxamido)-3,3-difluoro-piperidine-1-carboxylate]	1 to 20
Cc1oc2ccc(OCc3ccc4nccn4c3)cc2c1C(=O)NC1CCN(C(=O)OC(C)(C)C)CC1(F)F (stereo not drawn) [cpd 094, tert-butyl 3,3-difluoro-4-(5-(imidazo[1,2-a]pyridin-6-ylmethoxy)-2-methylbenzofuran-3-carbox-amido)piperidine-1-carboxylate]	1 to 20
Cc1oc2ccc(OCc3cncc(C(F)(F)F)c3)cc2c1C(=O)NC1CCN(C(=O)OC(C)(C)C)CC1(F)F (stereo not drawn) [cpd 095, tert-butyl 3,3-difluoro-4-(2-methyl-5-((5-(trifluoromethyl)pyridin-3-yl)methoxy)benzofuran-3-carboxamido)piperidine-1-carboxylate]	1 to 20
Cc1oc2ccc(OCc3ncccc3C(F)(F)F)cc2c1C(=O)NC1CCN(C(=O)OC(C)(C)C)CC1(F)F (stereo not drawn) [cpd 096, tert-butyl 3,3-difluoro-4-(2-methyl-5-((3-(trifluoromethyl)pyridin-2-yl)methoxy)benzofuran-3-carboxamido)piperidine-1-carboxylate]	1 to 20
Cc1oc2ccc(OCc3ccccn3)cc2c1C(=O)NC1CCN(C(=O)OC(C)(C)C)CC1(F)F (stereo not drawn) [cpd 097, tert-butyl 3,3-difluoro-4-(2-methyl-5-(pyridin-2-ylmethoxy)benzofuran-3-carboxamido)piperidine-1-carboxylate]	1 to 20
Cc1oc2ccc(OCc3cccnc3C(F)(F)F)cc2c1C(=O)NC1CCN(C(=O)OC(C)(C)C)CC1(F)F (stereo not drawn) [cpd 098, tert-butyl 3,3-difluoro-4-(2-methyl-5-((2-(trifluoromethyl)pyridin-3-yl)methoxy)benzofuran-3-carboxamido)piperidine-1-carboxylate]	1 to 20
Cc1ccncc1COc1ccc2oc(C)c(C(=O)O)c2c1 [cpd 099, 2-methyl-5-((4-methylpyridin-3-yl)methoxy)benzofuran-3-carboxylic acid]	1 to 20
COc1ncccc1COc1ccc2oc(C)c(C(=O)O)c2c1 [cpd 100, 5-((2-methoxypyridin-3-yl)methoxy)-2-methylbenzofuran-3-carboxylic acid]	1 to 20
Cc1oc2ccc(OCc3cccnc3C(F)(F)F)cc2c1C(=O)n1ccc(N)n1 [cpd 178, (3-amino-1H-pyrazol-1-yl)(2-methyl-5-((2-(trifluoromethyl)pyridin-3-yl)methoxy)benzofuran-3-yl)methanone]	1 to 20
Cc1oc2ccc(OCc3cccnc3C(F)(F)F)cc2c1C(=O)n1cc(N)cn1 [cpd 181, (4-amino-1H-pyrazol-1-yl)(2-methyl-5-((2-(trifluoromethyl)pyridin-3-yl)methoxy)benzofuran-3-yl)methanone]	1 to 20
Cc1oc2ccc(OCc3cccnc3C(F)(F)F)cc2c1C(=O)NCC1(N)COC1 [cpd 189, N-((3-aminooxetan-3-yl)methyl)-2-methyl-5-((2-(trifluoromethyl)pyridin-3-yl)methoxy)-benzofuran-3-carboxamide]	1 to 20

The next lines start with the values.

IC50 [µM]	Compound
1 to 20	Cc1ncsc1COc1ccc2oc(C)c(C(=O)O)c2c1 [cpd 102, 2-methyl-5-((4-methylthiazol-5-yl)methoxy)benzofuran-3-carboxylic acid]
1 to 20	Cc1ncsc1COc1cc(Cl)c2oc(C)c(C(=O)NC3(CO)CCOCC3)c2c1 [cpd 187, 7-chloro-N-(4-(hydroxymethyl)tetrahydro-2H-pyran-4-yl)-2-methyl-5-((4-methylthiazol-5-yl)-methoxy)benzofuran-3-carboxamide]
1 to 20	Cc1ncsc1COc1ccc2oc(C)c(C(=O)NC3CC4(CNC4)C3)c2c1 [cpd 190, 2-methyl-5-((4-methylthiazol-5-yl)methoxy)-N-(2-azaspiro[3.3]heptan-6-yl)benzofuran-3-carboxamide]
1 to 20	Cc1ncsc1COc1ccc2oc(C(F)F)c(C(=O)NC3(CO)CCOCC3)c2c1 [cpd 197, 2-(difluoromethyl)-N-(4-(hydroxymethyl)tetrahydro-2H-pyran-4-yl)-5-((4-methylthiazol-5-yl)-methoxy)benzofuran-3-carboxamide]

Same assay, conditions: PS (50 μM) stimulated, cpds. 400-499

IC50 [µM]	Compound
≥ 20	Cc1oc2ccc(OCc3cccn(C)c3=O)cc2c1C(=O)NC1CCN(CCO)C1=O (stereo not drawn) [cpd 405, N-(1-(2-hydroxyethyl)-2-oxopyrrolidin-3-yl)-2-methyl-5-((1-methyl-2-oxo-1,2-dihydropyridin-3-yl)methoxy)benzofuran-3-carboxamide]
1 to 20	Cc1oc2ccc(OCc3cccnc3O)cc2c1C(=O)NC1(C(N)=O)CC1 [cpd 479, N-(1-carbamoylcyclopropyl)-5-((2-hydroxypyridin-3-yl)methoxy)-2-methylbenzofuran-3-carboxamide]

Same assay, conditions: PS (50 μM) stimulated, cpds. 500-599

IC50 [µM]	Compound
≤ 1	Cc1ncsc1COc1ccc2oc(C)c(C(=O)NC(C#N)C(N)=O)c2c1 (stereo not drawn) [cpd 502, N-(2-amino-1-cyano-2-oxoethyl)-2-methyl-5-((4-methylthiazol-5-yl)methoxy)benzofuran-3-carboxamide]
